Data as given in article PMC7997369, “Assessment of the Multifunctional Behavior of Lupin Peptide P7 and Its Metabolite Using an Integrated Strategy” (Journal of Agricultural and Food Chemistry, 2020).
pIC50: −log10 of the molar value. No end group written: not given here.

Legend:
[1] = biological target: T1, HMGCoAR (catalytic domain) (Homo sapiens, UniProt P04035); conditions: read-out: IC50, in vitro HMGCoAR activity; cited from earlier work
T1 construct: finally the HMGCoAR (catalytic domain) (2 µL); purchased Sigma
T1 sequence (P04035 426-888 limits assumed): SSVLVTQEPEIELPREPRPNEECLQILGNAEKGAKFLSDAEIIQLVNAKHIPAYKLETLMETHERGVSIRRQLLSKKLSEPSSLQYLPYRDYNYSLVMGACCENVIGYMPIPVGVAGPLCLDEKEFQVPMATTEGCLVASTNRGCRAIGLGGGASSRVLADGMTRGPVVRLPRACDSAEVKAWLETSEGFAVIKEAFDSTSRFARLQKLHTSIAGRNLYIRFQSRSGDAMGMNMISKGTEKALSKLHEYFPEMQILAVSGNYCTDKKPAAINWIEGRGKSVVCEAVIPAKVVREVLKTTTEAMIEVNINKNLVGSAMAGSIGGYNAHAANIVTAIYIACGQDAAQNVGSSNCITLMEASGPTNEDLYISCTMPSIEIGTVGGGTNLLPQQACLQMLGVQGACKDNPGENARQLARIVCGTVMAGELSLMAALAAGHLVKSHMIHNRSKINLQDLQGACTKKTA
Excerpt: To express their activity in vivo, peptides masked within a protein sequence need not only be released by specific and selective proteases but may also be absorbed at the intestinal level and enter blood circulation to reach the target organs.[2] Differentiated Caco-2 cells still represent the best available model system for intestinal transport studies.[3]−[5] […] To function as a competitive inhibitor of HMGCoAR, a peptide should mimic the hydroxymethylglutaryl moiety. To achieve this goal, the conformation and side chain groups play a more important role than the total hydrophobicity. Moreover, the correlation of the inhibitory activity with the peptide length has not yet been established, while it has been confirmed that a ...

[2] = biological target: angiotensin-converting enzyme (ACE) (Homo sapiens, UniProt P12821); test: Cellular ACE inhibitory assay in undifferentiated intestinal Caco-2 cells; type: cell-based; set-up: endogenous in cells; host or cells: Caco-2 cells (INSERM, Paris); conditions: Caco-2 cells treated 24 h at 37 °C with P7 0.1–250 μM; ACE activity in cell lysates, fluorescent Abz substrate; mean ± sd of three independent experiments in triplicate
angiotensin-converting enzyme (ACE), sequence (P12821 30-1306): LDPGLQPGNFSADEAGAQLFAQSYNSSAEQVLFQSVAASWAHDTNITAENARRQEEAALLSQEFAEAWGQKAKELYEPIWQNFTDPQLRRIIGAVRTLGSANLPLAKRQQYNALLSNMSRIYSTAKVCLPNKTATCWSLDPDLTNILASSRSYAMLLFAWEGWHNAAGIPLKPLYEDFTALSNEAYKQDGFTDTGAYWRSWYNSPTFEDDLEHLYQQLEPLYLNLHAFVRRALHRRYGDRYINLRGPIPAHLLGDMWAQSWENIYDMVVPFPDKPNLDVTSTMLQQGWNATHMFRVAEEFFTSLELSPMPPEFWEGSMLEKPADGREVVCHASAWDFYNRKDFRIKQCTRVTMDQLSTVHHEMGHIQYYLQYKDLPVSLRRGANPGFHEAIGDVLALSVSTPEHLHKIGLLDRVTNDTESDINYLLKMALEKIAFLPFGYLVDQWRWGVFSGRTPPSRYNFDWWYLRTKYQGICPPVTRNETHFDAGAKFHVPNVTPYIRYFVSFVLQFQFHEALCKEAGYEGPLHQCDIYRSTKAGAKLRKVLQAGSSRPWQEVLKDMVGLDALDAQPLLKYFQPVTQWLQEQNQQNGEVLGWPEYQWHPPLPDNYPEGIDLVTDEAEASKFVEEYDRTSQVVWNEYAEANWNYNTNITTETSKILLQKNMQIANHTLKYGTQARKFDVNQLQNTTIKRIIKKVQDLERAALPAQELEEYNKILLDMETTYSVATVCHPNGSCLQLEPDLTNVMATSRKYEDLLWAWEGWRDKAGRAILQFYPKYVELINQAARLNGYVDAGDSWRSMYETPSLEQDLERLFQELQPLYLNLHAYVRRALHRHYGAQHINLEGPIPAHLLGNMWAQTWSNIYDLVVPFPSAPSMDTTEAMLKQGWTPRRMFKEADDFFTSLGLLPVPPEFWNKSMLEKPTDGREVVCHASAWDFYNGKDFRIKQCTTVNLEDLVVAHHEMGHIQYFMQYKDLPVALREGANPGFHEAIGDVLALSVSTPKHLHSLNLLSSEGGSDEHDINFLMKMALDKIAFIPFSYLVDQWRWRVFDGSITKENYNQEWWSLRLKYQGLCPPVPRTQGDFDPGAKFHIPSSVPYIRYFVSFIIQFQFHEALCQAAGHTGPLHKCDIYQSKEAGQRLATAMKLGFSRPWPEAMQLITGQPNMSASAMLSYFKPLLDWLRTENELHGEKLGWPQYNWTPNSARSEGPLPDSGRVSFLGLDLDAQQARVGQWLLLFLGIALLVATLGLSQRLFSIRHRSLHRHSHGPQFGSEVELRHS
Method: HK-2 cells from the American Type Culture Collection (ATCC) were cultured using Dulbecco’s modified Eagle’s medium–F12 (DMEM–F12) containing 25 mM glucose, 4 mM stable L-glutamine, 100 units […] penicillin, and 100 μg […] streptomycin, supplemented with 10% heat-inactivated fetal bovine serum (FBS, Hyclone Laboratories, Logan, UT, U.S.A.). […]
For the experiments, HK-2 and Caco-2 cells were seeded on 96-well plates at a density of 5 × 10^4 cells/well for 24 h. […] Total proteins were quantified by the Bradford method, and 2 μL of the supernatant (the equivalent of 2 μg of total proteins) was added to 18 μL of ACE1 lysis buffer in each well in a black 96-well plate with a clear bottom. […] Then, 20 μL of diluted ACE1 substrate [o-aminobenzoyl peptide (Abz-based peptide) substrate, 4% of ACE1 substrate in the assay buffer] was added in each well, except the background well, and the fluorescence (excitation/emission of 330/430 nm) was measured in a kinetic mode for 10 min at 37 °C.

pIC50 [2]: 4.86
Sequence: LTFPGSAED [P7]
pIC50 [1]: 4.16
